{"source": "ChEMBL document CHEMBL1201862", "about": "“PubChem BioAssay data set” (2004)", "key": {"[1]": {"target": "Paired box protein Pax-8 (Homo sapiens, UniProt Q06710)", "sequence (Q06710 whole entry)": "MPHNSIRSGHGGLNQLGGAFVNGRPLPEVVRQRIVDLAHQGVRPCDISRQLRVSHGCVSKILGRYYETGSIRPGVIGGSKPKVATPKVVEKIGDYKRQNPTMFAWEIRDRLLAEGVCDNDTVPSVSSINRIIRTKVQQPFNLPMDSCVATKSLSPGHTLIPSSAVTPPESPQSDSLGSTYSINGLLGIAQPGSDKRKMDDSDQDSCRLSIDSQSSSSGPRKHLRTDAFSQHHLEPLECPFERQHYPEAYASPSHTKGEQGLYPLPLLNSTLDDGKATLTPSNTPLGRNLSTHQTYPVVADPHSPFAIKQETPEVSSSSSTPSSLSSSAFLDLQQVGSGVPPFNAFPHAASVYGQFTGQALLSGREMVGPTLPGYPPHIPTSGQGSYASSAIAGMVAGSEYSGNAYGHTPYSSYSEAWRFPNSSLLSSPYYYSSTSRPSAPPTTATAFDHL", "assay": "PAX8 transcriptional activity inhibition in RMG-I – RMG-I cells, luciferase, cherry-pick, dose response (AID 687027);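 also: luciferase reporter driven by Pax8 target thyroperoxidase promoter measured by SteadyGlo luminescence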", "format": "functional, cell-based"}, "[2]": {"assay": "reduction of Shn3 3'UTR-driven luciferase in osteoblasts – cell-based, Clone20 osteoblasts, firefly luciferase, cherry-picked, dose response (AID 624132);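 also: firefly luciferase luminescence from reporter carrying the Shn3 3'UTR in osteoblasts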", "format": "functional"}, "[3]": {"assay": "viability of PTEN-deleted HCT116 cells – cell-based, HCT116 PTEN knockout, dose response (AID 1047);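 also: HCT116 colon tumor cells with PTEN knocked out; cells exposed to compound for 60 hours before readout; potency for loss of cell viability measured by luminescence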", "format": "functional"}, "[4]": {"target": "T1, Histone-lysine N-methyltransferase NSD2 (Homo sapiens, UniProt O96028)", "T1 sequence (O96028 whole entry)": "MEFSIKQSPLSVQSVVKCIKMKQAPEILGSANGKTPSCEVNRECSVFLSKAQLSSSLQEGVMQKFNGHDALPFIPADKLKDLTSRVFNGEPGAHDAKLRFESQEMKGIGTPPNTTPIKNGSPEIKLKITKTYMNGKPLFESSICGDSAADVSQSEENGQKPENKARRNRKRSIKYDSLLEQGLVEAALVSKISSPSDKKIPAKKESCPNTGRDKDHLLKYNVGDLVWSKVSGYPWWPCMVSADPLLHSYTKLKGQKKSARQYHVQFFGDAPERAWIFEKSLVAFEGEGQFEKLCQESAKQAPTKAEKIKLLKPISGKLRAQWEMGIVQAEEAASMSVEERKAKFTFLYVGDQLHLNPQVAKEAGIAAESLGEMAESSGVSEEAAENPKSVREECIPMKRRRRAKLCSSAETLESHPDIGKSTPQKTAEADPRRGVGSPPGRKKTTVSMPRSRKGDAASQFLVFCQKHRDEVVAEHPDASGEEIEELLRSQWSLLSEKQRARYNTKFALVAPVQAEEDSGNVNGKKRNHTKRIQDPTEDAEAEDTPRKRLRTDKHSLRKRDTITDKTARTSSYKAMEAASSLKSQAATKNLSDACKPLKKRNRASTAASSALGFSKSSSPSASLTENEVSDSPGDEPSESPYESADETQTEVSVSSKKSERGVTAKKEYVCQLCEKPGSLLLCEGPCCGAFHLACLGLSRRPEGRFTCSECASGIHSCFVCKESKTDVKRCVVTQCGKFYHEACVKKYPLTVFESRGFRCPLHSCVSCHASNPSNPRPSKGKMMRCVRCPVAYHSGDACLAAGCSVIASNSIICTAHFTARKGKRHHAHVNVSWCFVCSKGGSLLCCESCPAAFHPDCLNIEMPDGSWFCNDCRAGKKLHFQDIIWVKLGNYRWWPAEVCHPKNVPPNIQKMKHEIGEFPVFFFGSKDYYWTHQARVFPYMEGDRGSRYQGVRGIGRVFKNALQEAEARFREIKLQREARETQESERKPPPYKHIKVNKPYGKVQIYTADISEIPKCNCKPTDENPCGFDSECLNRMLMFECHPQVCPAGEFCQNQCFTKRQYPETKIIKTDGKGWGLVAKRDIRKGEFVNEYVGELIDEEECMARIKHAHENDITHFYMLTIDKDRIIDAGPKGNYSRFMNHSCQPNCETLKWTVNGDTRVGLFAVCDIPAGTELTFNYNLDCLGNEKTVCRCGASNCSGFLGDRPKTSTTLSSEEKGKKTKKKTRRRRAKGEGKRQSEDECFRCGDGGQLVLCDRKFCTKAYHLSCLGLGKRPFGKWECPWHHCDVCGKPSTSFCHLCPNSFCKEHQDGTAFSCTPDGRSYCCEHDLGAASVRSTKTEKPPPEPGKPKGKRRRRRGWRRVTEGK", "format": "biochemical"}, "[5]": {"target": "T2, Sentrin-specific protease 8 (Homo sapiens, UniProt Q96LD8)", "T2 sequence (Q96LD8 whole entry)": "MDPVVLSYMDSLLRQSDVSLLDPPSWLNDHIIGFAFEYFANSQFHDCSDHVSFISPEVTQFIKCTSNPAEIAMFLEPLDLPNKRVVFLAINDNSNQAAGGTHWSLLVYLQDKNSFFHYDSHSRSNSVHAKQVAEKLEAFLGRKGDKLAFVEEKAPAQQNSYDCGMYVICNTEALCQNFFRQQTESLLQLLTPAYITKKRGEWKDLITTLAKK", "format": "functional"}, "[6]": {"target": "T3, Sentrin-specific protease 6 (Homo sapiens, UniProt Q9GZR1)", "T3 sequence (Q9GZR1 whole entry)": "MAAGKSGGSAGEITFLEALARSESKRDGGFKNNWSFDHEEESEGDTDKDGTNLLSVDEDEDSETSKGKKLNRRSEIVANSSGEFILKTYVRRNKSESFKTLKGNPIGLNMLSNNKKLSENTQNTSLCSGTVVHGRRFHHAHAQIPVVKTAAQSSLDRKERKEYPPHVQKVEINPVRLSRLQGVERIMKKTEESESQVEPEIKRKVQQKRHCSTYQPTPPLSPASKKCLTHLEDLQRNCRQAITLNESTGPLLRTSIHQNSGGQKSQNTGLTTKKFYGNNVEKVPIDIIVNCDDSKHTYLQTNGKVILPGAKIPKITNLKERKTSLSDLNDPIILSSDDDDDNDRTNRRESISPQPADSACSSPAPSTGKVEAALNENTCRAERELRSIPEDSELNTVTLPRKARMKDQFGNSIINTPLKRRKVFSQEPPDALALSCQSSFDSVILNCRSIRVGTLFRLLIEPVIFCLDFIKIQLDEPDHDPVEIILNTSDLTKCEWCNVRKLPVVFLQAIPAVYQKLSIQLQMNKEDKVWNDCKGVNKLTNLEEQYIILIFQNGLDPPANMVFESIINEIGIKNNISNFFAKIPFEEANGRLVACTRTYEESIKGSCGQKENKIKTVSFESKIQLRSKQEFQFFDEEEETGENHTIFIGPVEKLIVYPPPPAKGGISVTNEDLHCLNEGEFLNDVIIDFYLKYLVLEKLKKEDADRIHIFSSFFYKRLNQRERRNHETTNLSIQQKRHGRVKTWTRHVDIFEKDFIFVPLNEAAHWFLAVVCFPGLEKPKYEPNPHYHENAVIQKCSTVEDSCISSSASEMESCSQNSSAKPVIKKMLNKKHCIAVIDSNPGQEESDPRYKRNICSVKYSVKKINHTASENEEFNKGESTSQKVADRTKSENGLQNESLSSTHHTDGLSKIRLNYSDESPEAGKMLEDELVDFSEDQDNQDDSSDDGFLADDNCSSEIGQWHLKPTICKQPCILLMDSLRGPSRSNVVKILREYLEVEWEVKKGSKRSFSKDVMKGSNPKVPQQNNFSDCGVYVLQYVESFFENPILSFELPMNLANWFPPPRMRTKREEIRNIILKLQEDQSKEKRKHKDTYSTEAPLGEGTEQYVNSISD", "format": "functional"}}, "note": "Calls of active or inactive are those of the source.", "data": [{"smiles": "CC(=O)NC(c1ccc2ccccc2c1)c1ccc2cccnc2c1O", "note": "(stereo not drawn)", "values": [{"measurement": "AC50", "setting": "[1]", "value": "1890 nM (active)"}, {"measurement": "AC50", "setting": "[2]", "value": "422 nM (active)"}]}, {"smiles": "CCOC(=O)c1c(C)[nH]c2c1-c1ccccc1C(=O)C2=O", "values": [{"measurement": "AC50", "setting": "[1]", "value": "1050 nM (active)"}, {"measurement": "EC50", "setting": "[3]", "value": "487 nM (active)"}, {"measurement": "AC50", "setting": "[2]", "value": "496 nM (active)"}, {"measurement": "AC50", "setting": "[4]", "value": "1330 nM (active)"}]}, {"smiles": "O=[N+]([O-])c1c(NCCO)cc(Sc2nc3ccccc3s2)c2nonc12", "values": [{"measurement": "EC50", "setting": "[3]", "value": "11100 nM (active)"}, {"measurement": "AC50", "setting": "[2]", "value": "1640 nM (active)"}]}, {"smiles": "O=C(c1ccccc1)c1coc2c1C(=O)c1ccccc1C2=O", "values": [{"measurement": "IC50", "setting": "[5]", "value": "17400 nM (active)"}, {"measurement": "IC50", "setting": "[6]", "value": "4610 nM (active)"}]}, {"smiles": "CCOC(=O)c1c(C)oc2c1c(/C=N/CCC(=O)O)c(O)c1ccccc12", "values": [{"measurement": "AC50", "setting": "[4]", "value": "1870 nM (active)"}]}, {"smiles": "COc1ccc2c(c1)CCC(/C=N/c1ccc3c(c1)OCO3)=C2O", "values": [{"measurement": "IC50", "setting": "[5]", "value": "15100 nM (active)"}, {"measurement": "IC50", "setting": "[6]", "value": "8460 nM (active)"}]}]}
